Experimental data from patent US9730445B2, “Herbicidal compositions comprising 4-amino-3-chloro-5-fluoro-6-(4-chloro-2-fluoro-3-methoxyphenyl) pyridine-2-carboxylic acid or a derivative thereof and fungicides” (DOW AGROSCIENCES LLC, priority 2013, dated 2017).

What was measured:
LEFCH = experiment: In-water applied weed control, transplanted paddy rice (greenhouse); type: in vivo, Leptochloa chinensis (L.) Nees (Chinese sprangletop)
Protocol: Weed seeds or nutlets of the desired test plant species were planted in puddled soil (mud) prepared by mixing a shredded, non-sterilized mineral soil (50.5 percent silt, 25.5 percent clay, and 24 percent sand, with a pH of about 7.6 and an organic matter content of about 2.9 percent) and water at a 1:1 volumetric ratio. The prepared mud was dispensed in 365 mL aliquots into 16-ounce (oz.) non-perforated plastic pots with a surface area of 86.59 square centimeters (cm^2) leaving a headspace of 3 centimeters (cm) in each pot. Rice seeds were planted in Sun Gro MetroMix® 306 planting mixture, which typically has a pH of 6.0 to 6.8 and an organic matter content of about 30 percent, in plastic plug trays. Seedlings at the second or third leaf stage of growth were transplanted into 860 mL of mud contained in 32-oz. non-perforated plastic pots with a surface area of 86.59 cm^2 4 days prior to herbicide application. The paddy was created by filling the headspace of the pots with 2.5 to 3 cm of water. When required to ensure good germination and healthy plants, a fungicide treatment and/or other chemical or physical treatment was applied. The plants were grown for 4-22 days in a greenhouse with an approximate 14 hour (h) photoperiod which was maintained at about 29° C. during the day and about 26° C. during the night. Nutrients were added as Osmocote® (17:6:10, N:P:K+minor nutrients) at 2 g per cup. Water was added on a regular basis to maintain the paddy flood, and supplemental lighting was provided with overhead metal halide 1000-Watt lamps as necessary. The plants were employed for testing when they reached the first through fourth true leaf stage. […]
Treatment requirements for each compound or fungicidal component were calculated based upon the rates being tested, the concentration of active ingredient or acid equivalent in the formulation, an application volume of 2 mL per component per pot, and an application area of 86.59 cm^2 per pot.
For formulated compounds, a measured amount was placed in an individual 100 or 200 mL glass vial and was dissolved in a volume of 1.25% (v/v) Agri-Dex® crop oil concentrate to obtain application solutions. […]
(§1) The treated plants and control plants were placed in a greenhouse as described above and water was added as needed to maintain a paddy flood. After approximately 3 weeks the condition of the test plants as compared with that of the untreated plants was determined visually and scored on a scale of 0 to 100 percent where 0 corresponds to no injury or growth inhibition and 100 corresponds to complete kill. […]

CYPES = experiment: Postemergence foliar-applied weed control, direct-seeded rice (greenhouse); type: in vivo, Cyperus esculentus L. (yellow nutsedge)
Protocol: Seeds or nutlets of the desired test plant species were planted in a soil matrix prepared by mixing aloam or sandy loam soil (e.g., 28.6 percent silt, 18.8 percent clay, and 52.6 percent sand, with a pH of about 5.8 and an organic matter content of about 1.8 percent) and calcareous grit in an 80 to 20 ratio. The soil matrix was contained in plastic pots with a volume of 1 quart and a surface area of 83.6 square centimeters (cm^2). […] The plants were grown for 8-22 days in a greenhouse with an approximate 14 hour (h) photoperiod which was maintained at about 29° C. during the day and 26° C. during the night. Nutrients (Peters Excel® 15-5-15 5-Ca 2-Mg and iron chelate) were applied in the irrigation solution as needed and water was added on a regular basis. Supplemental lighting was provided with overhead metal halide 1000-Watt lamps as necessary. The plants were employed for testing when they reached the first through fourth true leaf stage.
Treatments consisted of the acid or esters of 4-amino-3-chloro-5-fluoro-6-(4-chloro-2-fluoro-3-methoxy-phenyl)pyridine-2-carboxylic acid (Compound A), each formulated as an SC (suspension concentrate), and various fungicidal components alone and in combination. Forms of compound A were applied on an acid equivalent basis.
For treatments comprised of formulated compounds, measured amounts of compounds were placed individually in 25 mL glass vials and diluted in a volume of 1.25% volume per volume (v/v) Agri-Dex® crop oil concentrate to obtain 12× stock solutions. […] Application solutions were prepared by adding an appropriate amount of each stock solution (e.g., 1 mL) and diluted to the appropriate final concentrations with the addition of […] of an aqueous mixture of 1.25% (v/v) crop oil concentrate so that the final spray solutions contained 1.25+/−0.05% (v/v) crop oil concentrate.
For treatments comprised of technical compounds, weighed amounts can be placed individually in 25 mL glass vials and dissolved in a volume of 97:3 volume per volume (v/v) acetone/dimethyl sulfoxide (DMSO) to obtain 12× stock solutions. […] When technical materials are used, the concentrated stock solutions can be added to the spray solutions so that the final acetone and DMSO concentrations of the application solutions are 16.2% and 0.5%, respectively.
As required, additional water and/or 97:3 v/v acetone/DMSO was added to individual application solutions so that the final acetone and DMSO concentrations of the application solutions being compared were 8.1% and 0.25%, respectively
All stock solutions and applications solutions were visually inspected for compound compatibility prior to application. Spray solutions were applied to the plant material with an overhead Mandel track sprayer equipped with 8002E nozzles calibrated to deliver 187 L/ha over an application area of 0.503 square meters (m^2) at a spray height of 18 to 20 inches (46 to 50 cm) above average plant canopy height. Control plants were sprayed in the same manner with the solvent blank.
as §1, with “watered by sub-irrigation” for “water was added as needed”, “prevent wash-off of the test compounds.” for “maintain a paddy flood.”, “weeks,” for “weeks”

SMILES: COc1c(Cl)ccc(-c2nc(C(=O)OCc3ccccc3)c(Cl)c(N)c2F)c1F [Compound A Benzyl Ester]
- Visual Weed Control (%) - 19 DAA LEFCH Obs (LEFCH; Compound A Benzyl Ester 8 g ae/ha): 3%
- Visual Weed Control (%) - 19 DAA LEFCH Obs (LEFCH; Compound A Benzyl Ester 16 g ae/ha): 8%
- Visual Weed Control (%) - 21 DAA CYPES Obs (CYPES; r26 ester 8 g ae/ha alone, r27-29 phthalide 100/200/300 g ai/ha alone, r30-32 ester 8 + 100/200/300): 10%
- Visual Weed Control (%)—21 DAA CYPES Obs (CYPES; r45 ester 8 g ae/ha alone, r46-48 kasugamycin 17.5/35/70 g ai/ha alone, r49-51 ester 8 + 17.5/35/70): 70%
